Assay results published in patent publication US20060058504A1, “Peptides capable of inducing attraction to the axonal growth and their use for treating neurodegenerative diseases” (Centre National de la Recherche Scientific (CNRS), priority 2002, published 2006).
Entries after “also recorded” stand apart in the source; their conditions may differ.

T1: F3, axonin-1 and TAX-1 (Homo sapiens, UniProt Q02246)
T1 sequence (Q02246 31-1012): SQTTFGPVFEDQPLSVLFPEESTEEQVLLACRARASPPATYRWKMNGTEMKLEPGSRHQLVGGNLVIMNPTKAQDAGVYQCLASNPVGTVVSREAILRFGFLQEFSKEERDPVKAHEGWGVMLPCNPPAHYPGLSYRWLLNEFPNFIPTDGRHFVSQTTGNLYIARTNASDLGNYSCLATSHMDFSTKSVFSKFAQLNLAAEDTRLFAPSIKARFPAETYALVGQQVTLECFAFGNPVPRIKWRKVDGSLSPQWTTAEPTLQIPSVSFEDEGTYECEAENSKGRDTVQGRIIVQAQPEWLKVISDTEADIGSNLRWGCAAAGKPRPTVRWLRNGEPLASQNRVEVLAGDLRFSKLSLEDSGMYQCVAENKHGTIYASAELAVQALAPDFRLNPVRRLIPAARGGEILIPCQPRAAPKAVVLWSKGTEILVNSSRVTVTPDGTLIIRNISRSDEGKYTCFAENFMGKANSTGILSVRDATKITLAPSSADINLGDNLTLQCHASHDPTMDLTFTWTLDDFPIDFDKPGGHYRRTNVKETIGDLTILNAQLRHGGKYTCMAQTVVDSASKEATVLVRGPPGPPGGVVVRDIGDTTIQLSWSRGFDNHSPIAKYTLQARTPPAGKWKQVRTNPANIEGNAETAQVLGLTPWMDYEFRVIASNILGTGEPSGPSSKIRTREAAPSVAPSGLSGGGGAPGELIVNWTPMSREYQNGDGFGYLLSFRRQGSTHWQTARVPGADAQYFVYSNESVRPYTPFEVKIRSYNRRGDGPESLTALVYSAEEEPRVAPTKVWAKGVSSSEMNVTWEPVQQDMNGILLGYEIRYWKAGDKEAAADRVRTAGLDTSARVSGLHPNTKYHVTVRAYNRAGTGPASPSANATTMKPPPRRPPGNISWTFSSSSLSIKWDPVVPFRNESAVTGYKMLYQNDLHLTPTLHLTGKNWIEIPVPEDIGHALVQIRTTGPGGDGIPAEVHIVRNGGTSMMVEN

B1: D598N: L1Fc chimera with missense mutation D598N in Ig domain 6 (protein)
chain: IQIPEEYEGHHVMEPPVITEQSPRRLVVFPTDDISLKCEASGKPEVQFRWTRDGVHFKPKEELGVTVYQSPHSGSFTITGNNSNFAQRFQGIYRCFASNKLGTAMSHEIRLMAEGAPKWPKETVKPVEVEEGESVVLPCNPPPSAEPLRIYWMNSKILHIKQDERVTMGQNGNLYFANVLTSDNHSDYICHAHFPGTRTIIQKEPIDLRVKATNSMIDRKPRLLFPTNSSSHLVALQGQPLVLECIAEGFPTPTIKWLRPSGPMPADRVTYQNHNKTLQLLKVGEEDDGEYRCLAENSLGSARHAYYVTVEAAPYWLHKPQSHLYGPGETARLDCQVQGRPQPEVTWRINGIPVEELAKDQKYRIQRGALILSNVQPSDTMVTQCEARNRHGLLLANAYIYVVQLPAKILTADNQTYMAVQGSTAYLLCKAFGAPVPSVQWLDEDGTTVLQDERFFPYANGTLGIRDLQANDTGRYFCLAANDQNNVTIMANLKVKDATQITQGPRSTIEKKGSRVTFTCQASFDPSLQPSITWRGDGRDLQELGDSDKYFIEDGRLVIHSLDYSDQGNYSCVASTELNVVESRAQLLVVGSPGPVPRLVLSDLHLLTQSQVRVSWSPAEDHNAPIEKYDIEFEDKEMAPEKWYSLGKVPGNQTSTTLKLSPYVHYTFRVTAINKYGPGEPSPVSETVVTPEAAPEKNPVDVKGEGNETTNMVITWKPLRWMDWNAPQVQYRVQWRPQGTRGPWQEQIVSDPFLVVSNTSTFVPYEIKVQAVNSQGKGPEPQVTIGYSGEDYPQAIPELEGIEILNSSAVLVKWRPVDLAQVKGHLRGYNVTYWREGSQRKHSKRHIHKDHVVVPANTTSVILSGLRPYSSYHLEVQAFNGRGSGPASEFTFSTPEGVPGHPEALHLECQSNTSLLLRWQPPLSHNGVLTGYVLSYHPLDEGGKGQLSFNLRDPELRTHNLTDLSPHLRYRFQLQATTKEGPGEAIVREGGTMALSGISDFGNISATAGENYSVVSWVPKEGQCNFRFHILFKALGEEKGGASLSPQYVSYNQSSYTQWDLQPDTDYEIHLFKERMFRHQMAVKTNGTGRVRLPPAGFATE
modifications: left off: a dimerising Fc or GST

How the values were obtained:
[1] = test system: cortical axons repelled by Sema3A secreted from the ventral spinal cord; test: Co-culture of cortical slices and ventral spinal cord explants (axon guidance response to Sema3A); type: cell-based, mice
How it was run: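 Cortical slices from P0–P2 mice were co-cultured in a 3D plasma clot with ventral cervical spinal cord explants, alone or with L1Fc chimeras (3 μg/ml), ODQ (10^−5 M) or 7NI ([…]). After 1–2 DIV and PFA fixation, guidance was scored from −2 (repulsion) to +2 (attraction). Axon number and the three longest fibre lengths were measured in proximal and distal 600 μm regions.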

[2] = test system: Sema3A-induced endocytosis in neonatal cortical cells; test: Rhodamine-Dextran uptake in neonatal cortical cells; type: cell-based; conditions: 15 min, peptide 10^−5M
Description: (§1) Neonatal cortical cells or COS7 cells transfected with expression vectors for L1 and NP-1 were incubated for 15 min with Rhodamine-Dextran (2 mg/ml) mixed to a solution of Sema3A-AP supernatant, Sema3A and peptide (10^−5M), peptide alone (10^−5M) or control supernatant. Cells were fixed with PFA 4% and processed for immunocytochemistry as described in the above sections. To detect intracellular proteins, cells were permeabilized with methanol for 2 min.
(§2) Therefore it has been tested whether L1 mimetic peptide was able to block endocytosis. To visualize endocytosis we examined the uptake of Rhodamine-Dextran applied on live cortical cultures in various conditions. Cells were treated for 15 min with Rhodamine-Dextran together with Sema3A alone, Sema3A combined with the L1 mimetic peptide, peptide alone or untreated as control conditions. Strikingly, uptake of Rhodamine-Dextran was exclusively observed when cells were treated with Sema3A alone. Under this condition, spots of internalized fluorescence were observed along axon shafts and surrounding the cell bodies. […] To correlate this process with L1/NP-1 cis and trans interactions, the experiments of Rhodamine-Dextran uptake were performed on COS7 cells transfected to co-express L1 and NP-1 (FIG. 6B).

[3] = test system: Sema3A-induced endocytosis in COS7 cells co-expressing L1 and NP-1; test: Rhodamine-Dextran uptake in COS7 cells co-expressing L1 and NP-1; type: cell-based; conditions: 15 min, peptide 10^−5M
Description: as §1, §2

[4] = test system: Sema3A-induced co-internalization of L1 and NP-1; test: Immunocytochemical detection of cell-surface L1 and NP-1; type: cell-based; conditions: peptide 10^−5M
Description: as §1
In parallel, cells submitted to the same treatments were processed for immunocytochemical detection of L1 and NP-1. […] Furthermore, in the Sema3A-treated cultures L1 and NP-1 immunoreactivities were detected after permeabilization, as co-localized cytoplasmic patches (FIGS. 7F-7H).

[5] = test system: L1/NP-1 complex; test: Co-immunoprecipitation of the L1/NP-1 complex in presence of peptide; type: binding; conditions: Sema3A combined to the peptide
Description: COS cells were transfected with various expression vectors coding for full-length HA-tagged NP-1, myc-tagged cyt-deleted NP-1, wild-type L1, and L1 mutant constructs (G121S, A426D, L120V) using a lipofection transfection method (lipofectamine). After 2 DIV, cells were lysed with immunoprecipitation buffer (IP buffer: Hepes 25 mM, EDTA 5 mM, MgCl2 1 mM, PMSF 2 mM, glycerol 10% and triton X100 1%, pH 7). The lysate was incubated at 4° C. for 30 min, centrifuged for 5 min and pre-cleared with protein A-Sepharose for 2 hrs at 4° C. Samples were immunoprecipitated with mouse anti-HA (3μl, clone 12CA5, Roche), rabbit anti-L1 antibodies (3 μl), mouse anti-myc antibodies (3 μl, 9E 10, Sigma) coupled to rabbit anti-mouse antibodies on protein A preformed complexes for 16 hrs at 4° C. The beads were washed, and the precipitates analyzed by immunoblot using anti-HA (1:1000) and anti-L1 (1:1000) antibodies.
A possible molecular mechanism by which soluble L1 and its mimetic peptide could exert their modulatory effect on Sema3A signaling is that they compete with transmembrane L1 in the L1/NP-1 complex. To address this issue we examined in immunoprecipitation experiments the L1/NP-1 complex in conditions mimicking either a repulsive (Sema3A alone) or an attractive (Sema3A combined to the peptide) environment. […]

[6] = test system: NP-1; test: Binding of L1Fc chimeras to NP-1 expressing COS7 cells (immunofluorescence)
Description: The mutant L1Fc chimeras were produced and purified as described previously (De Angelis et al., 1999). Briefly, COS-7 cells were transiently transfected with 10 μg DNA per 150 mm culture dish, the soluble Fc chimeric protein was allowed to accumulate in the media for 6 days and was recovered and purified by protein A-Sepharose affinity chromatography. In the binding experiments, L1Fcs were cross-linked to anti-human Fc antibodies (50 μg/ml, Jackson Immunoresearch) for 1 hr at 37° C. Binding detection to NP-1 requested concentrations of L1Fcs 10 folds higher than L1. Antibody conjugated L1-Fc protein was then incubated with monolayers of COS7 cells transiently transfected with expression vectors encoding full length human L1 or myc-tagged NP-1 where the cytoplasmic domain is deleted (gift of J. Raper, 2000 and Renzi et al., 1999). Following incubation, the cells were fixed with 4% PFA, and processed for double-immunofluorescence detection. NP-1 was detected using a mouse anti-c myc antibody (clone 9E10, Sigma) and L1 using a rat monoclonal anti-L1 antibody. Secondary antibody anti-c-myc (Texas-red conjugated anti-mouse antibodies) was used to detect NP-1, anti-L1 (Texas red conjugated anti-rat antibodies) to detect L1, and anti-Fc (FITC conjugated anti-rabbit antibodies) to detect bound L1Fc chimeras. After secondary antibody incubation, the cells were washed with PBS and mounted in Mowiol (Calbiochem).
Next, we examined the ability of the mutant L1 Fc chimeras to bind NP-1. COS7 cells were transfected with a vector encoding the extracellular and transmembrane domains of NP-1 fused to a myc tag (ANP-1, Renzi et al., J. Neurosci., 15:7870-7880, 1999), and incubated with the mutant L1Fc chimeras. Binding was detected by immunofluorescence. […] Binding of L120V, G121S and A426D L1Fcs to NP-1 is illustrated in FIG. 3.

[7] = test system: L1; conditions: mutant bound to itself; cited from earlier work
[8] = molecular target: T1, F3, axonin-1 and TAX-1; conditions: TAX-1; cited from earlier work
[9] = test system: F3, axonin-1 and TAX-1; conditions: F3, axonin-1 (and TAX-1 where stated); cited from earlier work

L1/NP-1 complex, sequence (O14786 22-923): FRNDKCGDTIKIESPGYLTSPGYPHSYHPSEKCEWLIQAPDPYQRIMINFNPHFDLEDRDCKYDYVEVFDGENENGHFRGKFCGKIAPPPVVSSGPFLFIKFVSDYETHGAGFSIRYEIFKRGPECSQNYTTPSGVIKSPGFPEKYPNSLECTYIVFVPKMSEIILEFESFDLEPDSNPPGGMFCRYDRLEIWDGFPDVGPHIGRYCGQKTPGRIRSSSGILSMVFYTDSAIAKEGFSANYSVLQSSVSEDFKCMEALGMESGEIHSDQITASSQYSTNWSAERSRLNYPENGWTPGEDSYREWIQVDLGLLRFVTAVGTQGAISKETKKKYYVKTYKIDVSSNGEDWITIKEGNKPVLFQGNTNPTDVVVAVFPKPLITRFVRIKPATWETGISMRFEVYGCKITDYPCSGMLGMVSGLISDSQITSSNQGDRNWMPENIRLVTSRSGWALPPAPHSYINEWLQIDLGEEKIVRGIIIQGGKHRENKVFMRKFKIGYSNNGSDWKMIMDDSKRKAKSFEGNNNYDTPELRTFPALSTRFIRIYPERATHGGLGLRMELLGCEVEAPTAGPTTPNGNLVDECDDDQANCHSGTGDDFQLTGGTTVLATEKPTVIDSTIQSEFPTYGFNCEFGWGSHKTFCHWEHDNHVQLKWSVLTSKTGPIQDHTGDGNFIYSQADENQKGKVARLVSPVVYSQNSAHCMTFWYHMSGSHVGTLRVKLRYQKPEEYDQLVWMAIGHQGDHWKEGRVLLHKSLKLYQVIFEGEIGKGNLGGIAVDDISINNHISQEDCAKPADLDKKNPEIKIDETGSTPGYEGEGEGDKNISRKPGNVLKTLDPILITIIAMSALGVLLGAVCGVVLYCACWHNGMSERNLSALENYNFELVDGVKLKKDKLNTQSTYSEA
L1/NP-1 complex, sequence (P32004 20-1257 partner): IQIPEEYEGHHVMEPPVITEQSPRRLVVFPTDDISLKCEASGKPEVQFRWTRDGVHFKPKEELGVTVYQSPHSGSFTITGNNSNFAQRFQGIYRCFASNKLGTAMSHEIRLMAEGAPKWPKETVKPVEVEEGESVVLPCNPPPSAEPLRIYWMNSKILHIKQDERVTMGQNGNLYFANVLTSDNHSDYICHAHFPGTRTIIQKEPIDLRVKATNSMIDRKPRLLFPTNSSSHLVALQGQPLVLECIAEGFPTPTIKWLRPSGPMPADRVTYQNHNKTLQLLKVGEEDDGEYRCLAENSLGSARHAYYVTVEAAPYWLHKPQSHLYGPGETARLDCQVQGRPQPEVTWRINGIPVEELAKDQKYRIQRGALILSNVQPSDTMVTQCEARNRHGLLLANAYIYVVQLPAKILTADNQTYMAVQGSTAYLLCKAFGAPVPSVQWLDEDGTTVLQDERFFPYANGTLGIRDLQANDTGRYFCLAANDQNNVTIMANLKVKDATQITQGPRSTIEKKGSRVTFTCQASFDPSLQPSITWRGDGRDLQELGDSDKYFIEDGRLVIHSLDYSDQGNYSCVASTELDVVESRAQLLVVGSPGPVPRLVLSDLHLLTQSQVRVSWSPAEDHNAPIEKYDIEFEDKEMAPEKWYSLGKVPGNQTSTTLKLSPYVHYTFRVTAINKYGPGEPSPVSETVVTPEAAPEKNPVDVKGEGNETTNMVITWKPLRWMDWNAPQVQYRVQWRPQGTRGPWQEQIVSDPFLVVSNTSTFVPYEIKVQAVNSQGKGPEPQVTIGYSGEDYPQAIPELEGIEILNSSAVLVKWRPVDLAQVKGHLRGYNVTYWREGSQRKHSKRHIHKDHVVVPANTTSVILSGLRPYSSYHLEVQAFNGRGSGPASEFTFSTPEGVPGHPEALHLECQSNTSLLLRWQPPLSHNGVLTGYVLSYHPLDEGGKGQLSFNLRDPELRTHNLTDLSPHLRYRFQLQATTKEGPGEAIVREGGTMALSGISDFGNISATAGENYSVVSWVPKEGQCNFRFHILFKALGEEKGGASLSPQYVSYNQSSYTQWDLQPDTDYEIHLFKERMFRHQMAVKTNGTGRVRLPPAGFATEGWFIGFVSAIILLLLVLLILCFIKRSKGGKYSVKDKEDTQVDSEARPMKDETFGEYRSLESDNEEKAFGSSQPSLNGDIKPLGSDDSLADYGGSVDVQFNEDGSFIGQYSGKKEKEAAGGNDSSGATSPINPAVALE

Molecule	switching of Sema3A repulsion to attraction by peptide ([1]; peptide at 10^−5 and 10^−6M)	conversion of Sema3A-induced chemorepulsion into attraction by peptide ([1]; peptide at 10^−6M)	Rhodamine-Dextran uptake, Sema3A combined with peptide ([2]; listed as L1 mimetic peptide)	Rhodamine-Dextran uptake, peptide alone ([2]; listed as L1 mimetic peptide)	Rhodamine-Dextran uptake, Sema3A combined with peptide ([2]; listed as peptide mimicking soluble L1)	Rhodamine-Dextran uptake, Sema3A combined with peptide [3]	Rhodamine-Dextran uptake, peptide alone [3]	Rhodamine-Dextran uptake, Sema3A combined with peptide ([3]; listed as mimetic peptide)	Rhodamine-Dextran uptake, peptide alone ([3]; listed as mimetic peptide)	L1 and NP-1 cell surface expression, Sema3A combined with peptide [4]	L1 and NP-1 cell surface expression, peptide alone [4]	L1 and NP-1 cell surface expression, Sema3A combined with peptide ([4]; listed as switching peptide)	L1 and NP-1 cell surface expression, peptide alone ([4]; listed as switching peptide)	cis interaction between L1 and NP-1 in presence of the peptide [5]	switching of Sema3A repulsion to attraction by L1Fc chimera ([1]; chimera 3 μg/ml in culture medium)	binding to NP-1 expressing cells [6]	effect of mutation on homophilic binding [7]	effect of mutation on heterophilic binding to TAX-1 [8]	effect of mutation on heterophilic binding [9]
FASNKL (Description of the Artificial sequence Derived from the human amino-acid sequence of L1 Ig1 domain) [FASNKL120, six amino-acid peptide from L1 Ig1 domain]	switched Sema3A repulsion to attraction	successfully converted Sema3A-induced chemorepulsion into attraction	blocks Sema3A-induced endocytosis; also recorded: Internalization was blocked	no uptake of Rhodamine-Dextran could be detected; also recorded: Uptake of Rhodamine-Dextran was not detected	blocks Sema3A-induced endocytosis	This process was blocked	no endocytosis could be detected	but not Sema3A combined with the mimetic peptide induced internalization	No fluorescent labeling was detected	the two proteins were detected; also recorded: blocked by the peptide; also recorded: detected on the cell membrane	cell surface expression was observed	this process was blocked	the two proteins were detected	did not abrogate the cis interaction between L1 and NP-1					
B1															able to reverse Sema3A repulsion to attraction; also recorded: efficiently induce switching of Sema3A repulsion to attraction; also recorded: switched Sema3A from repulsion to attraction to the same extent as wild type L1Fc	bound NP-1 expressing cells	very modest effect	though not to TAX-1	significantly reduces
